Data as given in patent US20030114512A1, “Compounds with 5-ht2 and 5-ht1a agonist activity for treating glaucoma” (priority 2002, published 2003).
Like-named read-outs stand apart in the source and are kept apart here.

What was measured:
[1] = molecular target: T1, human cloned 5-HT1A receptors (Homo sapiens, UniProt P08908); experiment: 5-HT1A receptor binding assay ([3H]8-OH-DPAT)
T1 construct: purchased NEN (manufactured by Biosignal, Inc., Montreal, Canada); host or cells: CHO cells (membranes)
T1 sequence (P08908 1-422): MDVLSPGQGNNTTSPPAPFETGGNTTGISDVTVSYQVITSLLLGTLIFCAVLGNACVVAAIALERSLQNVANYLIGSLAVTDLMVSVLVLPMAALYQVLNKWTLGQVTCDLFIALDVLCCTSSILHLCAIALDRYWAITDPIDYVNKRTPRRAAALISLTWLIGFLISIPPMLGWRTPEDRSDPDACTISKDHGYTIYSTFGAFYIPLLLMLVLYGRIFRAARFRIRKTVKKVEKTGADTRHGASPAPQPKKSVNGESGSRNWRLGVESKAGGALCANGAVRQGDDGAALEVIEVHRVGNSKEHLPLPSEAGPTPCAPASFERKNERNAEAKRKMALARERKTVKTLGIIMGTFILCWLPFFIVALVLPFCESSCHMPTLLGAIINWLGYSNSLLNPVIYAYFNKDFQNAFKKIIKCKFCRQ
Protocol: 5-HT1A Receptor Binding Assay
5-HT1A binding studies were performed with human cloned receptors expressed in Chinese hamster ovary (CHO) cells using (^3H)8-OH DPAT as the ligand. Membranes from Chinese hamster ovary cells (CHO) expressing cloned 5-HT1A receptors (manufactured for NEN by Biosignal, Inc., Montreal, Canada) were homogenized in approximately 40 volumes of 50 mM Tris pH 7.4 for 5 sec. Drug dilutions were made using a Beckman Biomek 2000 robot (Beckman Instruments, Fullerton, Calif.). Incubations were conducted with membrane prep, test compounds, and 0.25 nM [^3H]8-OH-DPAT (NEN, Boston, Mass.) in the same buffer at 27° C. for 1 h. Assays were terminated by rapid vacuum filtration over Whatman GF/B glass fiber filters pre-soaked in 0.3% polyethyleneimine. Bound radioactivity was measured using liquid scintillation spectrometry. Data were analyzed using non-linear curve fitting programs (Sharif et al., J. Pharmac. Pharmacol. 51: 685-694, 1999).
Ligand binding studies can also be run using membrane preparations from calf and rat brain (local source) and human cortex membranes. Specific brain regions were dissected out, homogenized in 10 volumes of 0.32 M sucrose and centrifuged for 10 min at 700×g. The resulting supernatant was centrifuged at 43,500×g for 10 min and the pellet re-suspended in 50 mM Tris-HCl (pH 7.7, 25° C.) using a 10 sec polytron treatment. Aliquots were stored at −140° C. To remove endogenous serotonin, the preps were incubated at 37° C. for 10 min prior to the experiment. Assay incubations were terminated by rapid filtration over Whatman GF/C filters using a Brandel cell harvester. Ki values were calculated using the Cheng-Prusoff equation (De Vry et al., J. Pharm. Exper. Ther. 284:1082-1094, 1998.)

intraocular pressure = experiment: IOP response in lasered (hypertensive) eyes of conscious cynomolgus monkeys; assay type: in vivo, cynomolgus monkey
Protocol: IOP Response in Lasered (Hypertensive) Eyes of Conscious Cynomolgus Monkeys
Intraocular pressure (IOP) was determined with an Alcon Pneumatonometer after light corneal anesthesia with 0.1% proparacaine. Eyes were washed with saline after each measurement. After a baseline IOP measurement, test compound was instilled in one 30 μL aliquot to the right eyes only of nine cynomolgus monkeys. Vehicle was instilled in the right eyes of six additional animals. Subsequent IOP measurements were taken at 1, 3, and 6 hours.

5-HT2 receptor = molecular target: T2, 5-HT2 receptor (Rattus norvegicus, UniProt P14842); experiment: 5-HT2 functional assay: phosphoinositide (PI) turnover; assay type: cell-based; conditions: for Emax: A7r5 cells, relative to 5-HT set at 100%, read-out: Efficacy (Emax, %) 5-HT2 functional
T2 construct: A7r5 rat vascular smooth muscle cells; endogenous in cells; host or cells: A7r5 rat vascular smooth muscle cells
T2 sequence (P14842 whole entry): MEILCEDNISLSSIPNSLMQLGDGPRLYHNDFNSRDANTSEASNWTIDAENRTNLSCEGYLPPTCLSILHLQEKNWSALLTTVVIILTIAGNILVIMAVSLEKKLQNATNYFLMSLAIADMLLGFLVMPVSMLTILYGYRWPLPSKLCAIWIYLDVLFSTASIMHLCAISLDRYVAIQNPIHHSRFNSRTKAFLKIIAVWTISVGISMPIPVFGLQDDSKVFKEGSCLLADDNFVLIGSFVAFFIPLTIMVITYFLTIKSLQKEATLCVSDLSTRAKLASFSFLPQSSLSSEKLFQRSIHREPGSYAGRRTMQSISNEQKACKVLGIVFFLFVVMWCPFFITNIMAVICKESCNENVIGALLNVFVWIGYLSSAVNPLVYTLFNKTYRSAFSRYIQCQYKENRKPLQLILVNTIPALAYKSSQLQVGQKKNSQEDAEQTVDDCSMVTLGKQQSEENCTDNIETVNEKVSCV
Protocol: 5-HT2 Functional Assay: Phosphoinositide (PI) Turnover Assay
The relative agonist activity of serotonergic compounds at the 5-HT2 receptor can be determined in vitro using the ability of the compounds to stimulate the production of [^3H]inositol phosphates in [^3H]myo-inositol-labeled A7r5 rat vascular smooth muscle cells by their ability to activate the enzyme phospholipase C. These cells are grown in culture plates, maintained in a humidified atmosphere of 5% CO2 and 95% air and fed semi-weekly with Dulbecco's modified Eagle medium (DMEM) containing 4.5 g/l glucose and supplemented with 2 mM glutamine, 10 μg/ml gentamicin, and 10% fetal bovine serum. For the purpose of conducting the phosphoinositide (PI) turnover experiments, the A7r5 cells are cultured in 24-well plates as previously [J. Pharmacol. Expt. Ther., 286, 411 (1998)]. Confluent cells are exposed for 24-30 hrs to 1.5 μCi [^3H]-myo-inositol (18.3 Ci/mmol) in 0.5 ml of serum-free medium. Cells are then rinsed once with DMEM/F-12 containing 10 mM LiCl prior to incubation with the test agent (or solvent as the control) in 1.0 ml of the same medium for 1 hr at 37° C., after which the medium is aspirated and 1 ml of cold 0.1 M formic acid added to stop the reaction. The chromatographic separation of [^3H]-inositol phosphates ([^3H]-IPs) on an AG-1-X8 column is performed as previously described [J. Pharmacol. Expt. Ther. 286, 411 (1998)] with sequential washes with H2O and 50 mM ammonium formate, followed by elution of the total [^3H]-IPs fraction with 1.2 M ammonium formate containing 0.1 M formic acid. The eluate (4 ml) is collected, mixed with 15 ml scintillation fluid, and the total [^3H]-IPs determined by scintillation counting on a beta counter. Concentration-response data are analyzed by the sigmoidal fit function of the Origin Scientific Graphics software (Microcal Software, Northampton, Mass.) to determine agonist potency (EC50 value) and efficacy (Emax). Serotonin (5-HT) is used as a positive control (standard) agonist compound and the efficacy of test compounds is compared to that of 5-HT (set at 100%). The concentration of the compound needed to stimulate the production of [^3H]-IPs by 50% of the maximum response is termed the EC50 value.

[2] = 300 μg topical ocular, 1 hour after dose
[3] = 300 μg topical ocular, 3 hours after dose
[4] = 300 μg topical ocular, 6 hours after dose

| SMILES | IC50 ([1]; [3H]8-OH-DPAT, CHO cell membranes, read-out: IC50, nM (SEM) 5-HT1A receptor binding) | Percent IOP Reduction (intraocular pressure; [2]) | Percent IOP Reduction (intraocular pressure; [3]) | Percent IOP Reduction (intraocular pressure; [4]) | Emax (5-HT2 receptor) | EC50 (5-HT2 receptor; [3H]inositol phosphates, A7r5 rat vascular smooth muscle cells, read-out: EC50, nM (SEM) 5-HT2 functional) | IC50 [1] | EC50 (5-HT2 receptor) | Percent IOP Reduction (intraocular pressure; 250 μg topical ocular, 1 hour after dose) | Percent IOP Reduction (intraocular pressure; 250 μg topical ocular, 3 hours after dose) | Percent IOP Reduction (intraocular pressure; 250 μg topical ocular, 6 hours after dose) |
| --- | --- | --- | --- | --- | --- | --- | --- | --- | --- | --- | --- |
| CC(N)Cn1ccc2ccc(O)cc21.O=C(O)/C=C/C(=O)O (centres unmarked) [1-(2-aminopropyl) 6-hydroxyindole fumarate] | 111 nM | 19.1% | 30.1% | 27% | 86% | 577 nM | – | – | – | – | – |
| COc1ccc2[nH]cc(CC(C)N)c2c1.O=C(O)/C=C/C(=O)O (stereo not drawn) [α-Methyl 5-methoxytryptamine fumarate] | – | 14% | 23.5% | 22.6% | 81% | – | 26.5 nM | 206 nM | – | – | – |
| CC(N)Cc1c[nH]c2ccc(O)cc12.O=C(O)/C=C\C(=O)O (stereo not drawn) [α-Methyl 5-hydroxytryptamine maleate, 3-(2-aminopropyl)-1H-indol-5-ol] | – | – | – | – | 104% | – | 22.5 nM | – | 14.2% | 25.8% | 30.8% |
